Measurements as given in patent US20240261417A1, “SOS1 DEGRADING AGENT AND PREPARATION METHOD THEREFOR AND APPLICATION THEREOF” (SHANGHAI LEADINGTAC PHARMACEUTICAL CO. LTD., priority 2021, published 2024).

Target: T1, SOS1 protein (Homo sapiens, UniProt Q07889)
T1 sequence (Q07889 1-1333): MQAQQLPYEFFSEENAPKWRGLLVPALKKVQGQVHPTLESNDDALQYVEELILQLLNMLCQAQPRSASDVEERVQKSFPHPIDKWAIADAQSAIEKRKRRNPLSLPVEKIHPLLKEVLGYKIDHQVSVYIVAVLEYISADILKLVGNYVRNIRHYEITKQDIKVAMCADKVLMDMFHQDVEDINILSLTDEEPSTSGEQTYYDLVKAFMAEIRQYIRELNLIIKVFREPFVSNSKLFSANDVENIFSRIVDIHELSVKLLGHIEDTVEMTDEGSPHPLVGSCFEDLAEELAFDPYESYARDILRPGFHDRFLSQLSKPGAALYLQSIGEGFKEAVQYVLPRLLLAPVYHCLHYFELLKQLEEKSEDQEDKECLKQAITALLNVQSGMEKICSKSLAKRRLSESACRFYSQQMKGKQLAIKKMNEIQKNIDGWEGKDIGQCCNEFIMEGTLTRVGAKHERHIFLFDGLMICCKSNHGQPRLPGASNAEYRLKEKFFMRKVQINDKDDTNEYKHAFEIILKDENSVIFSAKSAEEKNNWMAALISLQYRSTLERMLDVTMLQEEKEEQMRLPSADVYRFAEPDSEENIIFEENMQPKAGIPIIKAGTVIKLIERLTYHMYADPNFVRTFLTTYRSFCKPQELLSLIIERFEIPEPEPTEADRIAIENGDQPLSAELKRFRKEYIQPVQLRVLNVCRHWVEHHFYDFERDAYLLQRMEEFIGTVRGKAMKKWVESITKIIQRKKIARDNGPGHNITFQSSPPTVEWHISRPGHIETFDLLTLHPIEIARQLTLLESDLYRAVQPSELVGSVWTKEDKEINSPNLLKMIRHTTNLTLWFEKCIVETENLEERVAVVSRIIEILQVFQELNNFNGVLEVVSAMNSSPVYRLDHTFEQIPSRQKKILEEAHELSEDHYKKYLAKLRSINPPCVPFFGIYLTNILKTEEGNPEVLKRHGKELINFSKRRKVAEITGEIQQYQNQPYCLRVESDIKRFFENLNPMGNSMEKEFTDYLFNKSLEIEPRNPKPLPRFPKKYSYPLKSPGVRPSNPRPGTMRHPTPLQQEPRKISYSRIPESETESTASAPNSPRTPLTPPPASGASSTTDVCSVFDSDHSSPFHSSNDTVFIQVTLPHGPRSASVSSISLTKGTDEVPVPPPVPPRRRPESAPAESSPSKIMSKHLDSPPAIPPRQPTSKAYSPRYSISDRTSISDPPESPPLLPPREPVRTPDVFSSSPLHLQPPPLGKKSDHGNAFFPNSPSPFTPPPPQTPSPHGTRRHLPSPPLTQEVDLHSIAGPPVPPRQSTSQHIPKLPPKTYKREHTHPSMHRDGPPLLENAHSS
Experiment: SOS1 degradation assay (Western blot), NCI-H358 cells
Format: cell-based
Parameters: The degradation of SOS1 by the compounds was investigated on KRAS G12C mutant human non-small cell lung cancer cells NCI-H358; host or cells: NCI-H358 (human cancer cell lines)
Details: SOS1 degradation, NCI-H358 cells, 24 h, Western blot; for DC50: read-out: NCI-H358 (G12C) DC50; for Dmax: read-out: NCI-H358 (G12C) Dmax
Procedure, shortened: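 SOS1 degradation was assessed by densitometry of Western blots, relative to untreated controls, after 24 h compound exposure (0.03–3000 nM final, 37 °C, 5% CO2) of cells seeded at 5×10^5/well. Log concentration–response fitting gave DC50 and Dmax.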

Row | DC50 [nM] | Dmax [%] | Structure (SMILES) | NCI-H358 (G12C) Dmax
1 | < 50 | 80 to 100 | CNCc1ccccc1-c1csc([C@@H](C)Nc2nc(C)nc3cc(OC)c([C@H]4CC[C@H](C(=O)N5CCN(CC6CCC7(CC6)CCN(C(=O)c6ccc(F)c(N8CCC(=O)NC8=O)c6)CC7)CC5)CC4)cc23)c1 [Example 74, 1-(2-fluoro-5-(9-((4-((1R,4R)-4-(7-methoxy-2-methyl-4-(((R)-1-(4-(2-((methylamino)methyl)phenyl)thien-2-yl)ethyl)amino)quinazolin-6-yl)cyclohexane-1-carbonyl)piperazin-1-yl)methyl)-3-azaspiro[5.5]undecane-3-carbonyl)phenyl)dihydropyrimidine-2,4(1H,3H)-dione] | 
2 | 1000 to 10000 | < 30 | COc1cc2nc(C)nc(N[C@H](C)c3cc(N)cc(C(F)(F)F)c3)c2cc1[C@H]1CC[C@H](C(=O)N(C)CC2CCC3(CC2)CCN(C(=O)c2ccc(Cl)c(N4CCC(=O)NC4=O)c2)CC3)CC1 [Example 9, (1R,4R)-4-(4-(((R)-1-(3-amino-5-(trifluoromethyl)phenyl)ethyl)amino)-7-methoxy-2-methylquinazolin-6-yl)-N-((3-(4-chloro-3-(2,4-dioxotetrahydropyrimidin-1(2H)-yl)benzoyl)-3-azaspiro[5.5]undecane-9-yl)methyl)-N-methylcyclohexane-1-carboxamide] | 
3 | 1000 to 10000 | < 30 | COc1cc2nc(C)nc(N[C@H](C)c3cc(N)cc(C(F)(F)F)c3)c2cc1[C@H]1CC[C@H](C(=O)N2CCN(CC#CC3CCN(C(=O)c4ccc(Cl)c(N5CCC(=O)NC5=O)c4)CC3)CC2)CC1 [Example 27, 1-(5-(4-(3-(4-((1R,4R)-4-(4-(((R)-1-(3-amino-5-(trifluoromethyl)phenyl)ethyl)amino)-7-methoxy-2-methylquinazolin-6-yl)cyclohexane-1-carbonyl)piperazin-1-yl)prop-1-yn-1-yl)piperidine-1-carbonyl)-2-chlorophenyl)dihydropyrimidine-2,4(1H,3H)-dione] | 
4 | 100 to 500 | 50 to 80 | Cc1nc(N[C@H](C)c2cc(N)cc(C(F)(F)F)c2)c2cc([C@H]3CC[C@H](C(=O)N4CCN(CC5CCC6(CC5)CCN(C(=O)c5ccc(Cl)c(N7CCC(=O)NC7=O)c5)CC6)CC4)CC3)ncc2n1 [Example 78, 1-(5-(9-((4-((1R,4R)-4-(4-(((R)-1-(3-amino-5-(trifluoromethyl)phenyl)ethyl)amino)-2-methylpyrido[3,4-d]pyrimidin-6-yl)cyclohexane-1-carbonyl)piperazin-1-yl)methyl)-3-azaspiro[5.5]undecane-3-carbonyl)-2-chlorophenyl)dihydropyrimidine-2,4(1H,3H)-dione] | 
5 | < 50 | 80 to 100 | COc1cc2nc(C)nc(N[C@H](C)c3cc(N)cc(C(F)(F)F)c3)c2cc1[C@H]1CC[C@H](C(=O)N2CCN(CC3CCC4(CC3)CCN(C(=O)c3ccc(F)c(N5CCC(=O)NC5=O)c3)CC4)CC2)CC1 [Example 24, 1-(5-(9-((4-((1R,4R)-4-(4-(((R)-1-(3-amino-5-(trifluoromethyl)phenyl)ethyl)amino)-7-methoxy-2-methylquinazolin-6-yl)cyclohexane-1-carbonyl)piperazin-1-yl)methyl)-3-azaspiro[5.5]undecane-3-carbonyl)-2-fluorophenyl)dihydropyrimidine-2,4(1H,3H)-dione] | 
6 |  |  | [2H]C([2H])(OCC1CCN(C(=O)c2ccc(Cl)c(N3CCC(=O)NC3=O)c2)CC1)C1CCN(C(=O)[C@H]2CC[C@H](c3cc4c(N[C@H](C)c5cc(N)cc(C(F)(F)F)c5)nc(C)nc4cc3OC)CC2)CC1 [Example 76, 1-(5-(4-(((1-((1R,4R)-4-(4-(((R)-1-(3-amino-5-(trifluoromethyl)phenyl)ethyl)amino)-7-methoxy-2-methylquinazolin-6-yl)cyclohexane-1-carbonyl)piperidin-4-yl)methoxy-d2)methyl)piperidine-1-carbonyl)-2-chlorophenyl)dihydropyrimidine-2,4(1H,3H)-dione] | B (when 50≤Dmax (%)<80, the level was B)
7 | 1000 to 10000 | < 30 | COc1cc2nc(C)nc(N[C@H](C)c3cc(N)cc(C(F)(F)F)c3)c2cc1[C@H]1CC[C@H](C(=O)N2CCC(CCN(C)CC3CCN(C(=O)c4ccc(Cl)c(N5CCC(=O)NC5=O)c4)CC3)CC2)CC1 [Example 25, 1-(5-(4-(((2-(1-((1R,4R)-4-(4-(((R)-1-(3-amino-5-(trifluoromethyl)phenyl)ethyl)amino)-7-methoxy-2-methylquinazolin-6-yl)cyclohexane-1-carbonyl)piperidin-4-yl)ethyl)(methyl)amino)methyl)piperidine-1-carbonyl)-2-chlorophenyl)dihydropyrimidine-2,4(1H,3H)-dione] | 
8 | 1000 to 10000 | 30 to 50 | Cc1nc(N[C@H](C)c2cc(N)cc(C(F)(F)F)c2)c2cc(-c3ccn(CCCN(C)CC4CCC5(CC4)CCN(C(=O)c4ccc(Cl)c(N6CCC(=O)NC6=O)c4)CC5)c(=O)c3)c(C)cc2n1 [Example 42, (R)-1-(5-(9-(((3-(4-(4-((1-(3-amino-5-(trifluoromethyl)phenyl)ethyl)amino)-2,7-dimethylquinazolin-6-yl)-2-oxopyridin-1(2H)-yl)propyl)(methyl)amino)methyl)-3-azaspiro[5.5]undecane-3-carbonyl)-2-chlorophenyl)dihydropyrimidine-2,4(1H,3H)-dione] | 
9 | 1000 to 10000 | 30 to 50 | COc1cc2nc(C)nc(N[C@H](C)c3cc(NC(C)=O)cc(C(F)(F)F)c3)c2cc1[C@H]1CC[C@H](C(=O)N2CCN(CC3CCC4(CC3)CCN(C(=O)c3ccc(Cl)c(N5CCC(=O)NC5=O)c3)CC4)CC2)CC1 [Example 17, N-(3-((R)-1-((6-((1R,4R)-4-(4-((3-(4-chloro-3-(2,4-dioxotetrahydropyrimidin-1(2H)-yl)benzoyl)-3-azaspiro[5.5]undecane-9-yl)methyl)piperazine-1-carbonyl)cyclohexyl)-7-methoxy-2-methylquinazolin-4-yl)amino)ethyl)-5-(trifluoromethyl)phenyl)acetamide] | 

Row | Structure (SMILES) | DC50 [nM] | Dmax [%] | NCI-H358 (G12C) Dmax
10 | COc1cc2nc(C)nc(N[C@H](C)c3cc(N)cc(C(F)(F)F)c3)c2cc1C1CCC(C(=O)N2CCN(CC3CCC4(CC3)CCN(C(=O)c3ccc(C5CCC(=O)NC5=O)cc3)CC4)CC2)CC1 (stereo partly drawn) [Example 23, 3-(4-(9-((4-((1R,4R)-4-(4-(((R)-1-(3-amino-5-(trifluoromethyl)phenyl)ethyl)amino)-7-methoxy-2-methylquinazolin-6-yl)cyclohexane-1-carbonyl)piperazin-1-yl)methyl)-3-azaspiro[5.5]undecane-3-carbonyl)phenyl)piperidine-2,6-dione] | < 50 |  | B (when 50≤Dmax (%)<80, the level was B)
